Measurements published in patent publication US20020019536A1, “NEW URETHANES, THIO AND DITHIO ANALOGUES AND THEIR USE AS INHIBITORS OF CHOLESTEROL BIOSYNTHESIS” (priority 1997, published 2002).

Key:
[1] = tested on: 14C-acetate incorporation into the steroids which can be precipitated with digitonin (cholesterol biosynthesis); experiment: Inhibition of 14C-acetate incorporation into the steroids which can be precipitated with digitonin; type: cell-based; details: for IC50: 14C-acetate incorporation
Description: I. Measuring the Inhibition of ^14C-acetate incorporation into the steroids which can be precipitated with digitonin: The inhibitory effect was investigated using the method described in J. Lipid. Res. 37, 148-157 [1996] at test concentrations of 10^−8 and 10^−9 mol/l.

[2] = target: T1, 2,3-epoxysqualene-lanosterol-cyclase (Rattus norvegicus, UniProt P48450); experiment: In-vivo activity in the rat after oral administration: 2,3-epoxysqualene level in the liver
T1 construct: Measuring the in-vivo Activity in the Rat after Oral Administration; from tissue; host or cells: living rat; 2,3-epoxysqualene measured in the liver
T1 sequence (P48450 1-733): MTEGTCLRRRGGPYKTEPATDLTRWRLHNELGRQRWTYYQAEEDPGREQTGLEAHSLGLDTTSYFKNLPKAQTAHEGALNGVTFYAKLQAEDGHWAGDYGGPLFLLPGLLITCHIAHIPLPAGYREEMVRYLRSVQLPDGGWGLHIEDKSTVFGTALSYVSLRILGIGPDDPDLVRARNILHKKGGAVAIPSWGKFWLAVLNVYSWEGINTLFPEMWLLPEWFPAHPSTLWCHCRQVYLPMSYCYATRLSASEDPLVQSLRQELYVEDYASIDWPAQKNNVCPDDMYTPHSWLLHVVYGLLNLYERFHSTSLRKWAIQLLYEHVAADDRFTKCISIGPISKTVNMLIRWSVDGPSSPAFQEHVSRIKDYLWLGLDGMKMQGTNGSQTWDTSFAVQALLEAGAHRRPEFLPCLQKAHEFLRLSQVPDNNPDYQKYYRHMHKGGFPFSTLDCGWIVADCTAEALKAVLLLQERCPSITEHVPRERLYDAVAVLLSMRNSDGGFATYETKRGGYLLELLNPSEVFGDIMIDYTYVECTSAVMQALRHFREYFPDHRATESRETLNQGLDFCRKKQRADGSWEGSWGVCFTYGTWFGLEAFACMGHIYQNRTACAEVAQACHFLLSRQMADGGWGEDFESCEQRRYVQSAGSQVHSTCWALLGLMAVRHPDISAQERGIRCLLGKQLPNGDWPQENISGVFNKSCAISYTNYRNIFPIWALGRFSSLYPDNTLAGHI
Method: II. Measuring the in-vivo Activity in the Rat after Oral Administration
Inhibiting the enzyme 2,3-epoxysqualene-lanosterol-cyclase causes an increase in the 2,3-epoxisqualene levels in the liver and plasma. The quantity of 2,3-epoxysqualene formed therefore serves as a direct measurement of the potency on the animal as a whole. The amounts were determined using the method described in J. Lipid. Res. 38, 564-575, [1997] at t=3 or 8 hours after administration of the substance in concentrations of c=0.01, 0.03, 0.1, 0.3 and 1.0 mg/kg. Table 3 which follows gives the results obtained for the abovementioned substances A, B, C, E, G, H, O and R by way of example.
In the control animals there were no measurable 2,3-epoxisqualene levels under these conditions.

Asp. niger ATCC 16404 = experiment: Fungistatic activity, series dilution test; type: cell-based; details: Sabouraud broth, 2 to 4 days at 26° C.
Method: (§1) V. Determining the Fungistatic Activity
(§2) The fungistatic activity was determined by the series dilution test (microtitre system). Sabouraud broth was used as the nutrient medium. The inoculum amounted to about 10^4 to 10^5 CFU/ml (CFU=colony-forming units); the incubation period was 2 to 4 days at 26° C.
(§3) The lowest concentration which allows no visible growth (minimum inhibitory concentration MIC) was determined.
(§4) The abovementioned compounds B, E, G, I, K, L, N, Q and R were tested. The MIC is given in μg/ml.

[3] = tested on: Cand. albicans ATCC 10231; experiment: Fungistatic activity, series dilution test; type: cell-based; details: Sabouraud broth, 2 to 4 days at 26° C.
Method: as §1, §2, §3, §4

Pen. notatum CBS 19746 = experiment: Fungistatic activity, series dilution test; type: cell-based; details: Sabouraud broth, 2 to 4 days at 26° C.
Method: as §1, §2, §3, §4

Rhod. rubra 49 = experiment: Fungistatic activity, series dilution test; type: cell-based; details: Sabouraud broth, 2 to 4 days at 26° C.
Method: as §1, §2, §3, §4

[4] = tested on: Sacch. carisbergensis ATCC 9080; experiment: Fungistatic activity, series dilution test; type: cell-based; details: Sabouraud broth, 2 to 4 days at 26° C.
Method: as §1, §2, §3, §4

[5] = tested on: Trich. mentagrophytes ATCC 9129; experiment: Fungistatic activity, series dilution test; type: cell-based; details: Sabouraud broth, 2 to 4 days at 26° C.
Method: as §1, §2, §3, §4

[6] = Lipid reduction in the normolipaemic golden hamster; type: in vivo; details: dose 5.87 mg/kg/day, compared with control group
Method: III. Lipid Reduction in the Normolipaemic Golden Hamster This was determined using the method described in J. Lipid. Res. 38, 564-575, (1997). At the end of the experiment the total cholesterol, β-lipoprotein-cholesterol and HDL-cholesterol were determined and compared with the values of a control group which were fed without any test substance. The lipid-lowering activity of the abovementioned compounds E, G and I was tested.

[7] = 0.01 mg/kg oral, 3 h after administration
[8] = 0.01 mg/kg oral, 8 h after administration
[9] = 0.03 mg/kg oral, 3 h after administration
[10] = 0.03 mg/kg oral, 8 h after administration
[11] = 0.1 mg/kg oral, 3 h after administration
[12] = 0.1 mg/kg oral, 8 h after administration
[13] = 1.0 mg/kg oral, 3 h after administration
[14] = 1.0 mg/kg oral, 8 h after administration
[15] = 0.3 mg/kg oral, 3 h after administration
[16] = 0.3 mg/kg oral, 8 h after administration

SMILES: CN(C)Cc1ccc([C@H]2CC[C@H](N(C)C(=S)Sc3ccc(Cl)cc3)CC2)cc1 [A, trans-S-(4-chlorophenyl)-N-4-[4-(dimethylaminomethyl)-phenyl]cyclohexyl-N-methyldithiocarbamate]
- percentage inhibition of 14C-acetate incorporation ([1]; test concentration 10^−8 mol/l): −85%
- percentage inhibition of 14C-acetate incorporation ([1]; test concentration 10^−9 mol/l): −39%
- 2,3-epoxysqualene concentration in the liver (rat) [2, 7]: 0.0 µg/g
- 2,3-epoxysqualene concentration in the liver (rat) [2, 8]: 14.6 µg/g
- 2,3-epoxysqualene concentration in the liver (rat) [2, 9]: 11.8 µg/g
- 2,3-epoxysqualene concentration in the liver (rat) [2, 10]: 66.0 µg/g
- 2,3-epoxysqualene concentration in the liver (rat) [2, 11]: 62.6 µg/g
- 2,3-epoxysqualene concentration in the liver (rat) [2, 12]: 312.5 µg/g
- 2,3-epoxysqualene concentration in the liver (rat) [2, 13]: 136.5 µg/g
- 2,3-epoxysqualene concentration in the liver (rat) [2, 14]: 291.9 µg/g

SMILES: CN(C)Cc1ccc([C@H]2CC[C@H](N(C)C(=S)SCc3ccc(F)cc3)CC2)cc1.Cl [C, trans-S-(4-fluorobenzyl)-N-4-[4-(dimethylaminomethyl)-phenyl]cyclohexyl-N-methyldithiocarbamate-hydrochloride]
- percentage inhibition of 14C-acetate incorporation ([1]; test concentration 10^−8 mol/l): −87%
- percentage inhibition of 14C-acetate incorporation ([1]; test concentration 10^−9 mol/l): −52%
- 2,3-epoxysqualene concentration in the liver (rat) [2, 7]: 0.0 µg/g
- 2,3-epoxysqualene concentration in the liver (rat) [2, 8]: 84.8 µg/g
- 2,3-epoxysqualene concentration in the liver (rat) [2, 9]: 33.1 µg/g
- 2,3-epoxysqualene concentration in the liver (rat) [2, 10]: 57.8 µg/g
- 2,3-epoxysqualene concentration in the liver (rat) [2, 11]: 47.0 µg/g
- 2,3-epoxysqualene concentration in the liver (rat) [2, 12]: 133.1 µg/g
- 2,3-epoxysqualene concentration in the liver (rat) [2, 15]: 77.8 µg/g
- 2,3-epoxysqualene concentration in the liver (rat) [2, 16]: 196.5 µg/g
- 2,3-epoxysqualene concentration in the liver (rat) [2, 13]: 68.1 µg/g
- 2,3-epoxysqualene concentration in the liver (rat) [2, 14]: 243.9 µg/g

SMILES: CN(C)Cc1ccc([C@H]2CC[C@H](N(C)C(=S)SCc3ccc(Cl)cc3)CC2)cc1.Cl [D, trans-S-(4-chlorobenzyl)-N-4-[4-(dimethylaminomethyl)-phenyl]cyclohexyl-N-methyldithiocarbamate-hydrochloride]
- percentage inhibition of 14C-acetate incorporation ([1]; test concentration 10^−8 mol/l): −85%
- percentage inhibition of 14C-acetate incorporation ([1]; test concentration 10^−9 mol/l): −51%

SMILES: CN(C)Cc1ccc([C@H]2CC[C@@H](N(C)C(=S)SCc3ccccc3)CC2)cc1.Cl [F, cis-S-benzyl-N-4-[4-(dimethylaminomethyl)phenyl]-cyclohexyl-N-methyldithiocarbamate-hydrochloride]
- percentage inhibition of 14C-acetate incorporation ([1]; test concentration 10^−8 mol/l): −83%
- percentage inhibition of 14C-acetate incorporation ([1]; test concentration 10^−9 mol/l): −40%

SMILES: CN(C)Cc1ccc([C@H]2CC[C@H](N(C)C(=O)Sc3ccc(Cl)cc3)CC2)cc1.Cl [H, trans-S-(4-chlorophenyl)-N-4-[4-(dimethylaminomethyl)-phenyl]cyclohexyl-N-methylthiocarbamate-hydrochloride]
- IC50 [1]: 0.5 nM
- percentage inhibition of 14C-acetate incorporation ([1]; test concentration 10^−8 mol/l): −87%
- percentage inhibition of 14C-acetate incorporation ([1]; test concentration 10^−9 mol/l): −65%
- 2,3-epoxysqualene concentration in the liver (rat) [2, 7]: 2.9 µg/g
- 2,3-epoxysqualene concentration in the liver (rat) [2, 8]: 31.3 µg/g
- 2,3-epoxysqualene concentration in the liver (rat) [2, 9]: 25.7 µg/g
- 2,3-epoxysqualene concentration in the liver (rat) [2, 10]: 25.3 µg/g
- 2,3-epoxysqualene concentration in the liver (rat) [2, 11]: 117.7 µg/g
- 2,3-epoxysqualene concentration in the liver (rat) [2, 12]: 202.3 µg/g
- 2,3-epoxysqualene concentration in the liver (rat) [2, 15]: 70.3 µg/g
- 2,3-epoxysqualene concentration in the liver (rat) [2, 16]: 112.6 µg/g

SMILES: CN(C(=O)Oc1ccc(Cl)cc1)[C@H]1CC[C@H](c2ccc(CN3CCCC3)cc2)CC1.Cl [K, trans-O-(4-chlorophenyl)-N-methyl-N-4-[4-(pyrrolidinomethyl)phenyl]cyclohexylcarbamate-hydrochloride]
- percentage inhibition of 14C-acetate incorporation ([1]; test concentration 10^−8 mol/l): −81%
- percentage inhibition of 14C-acetate incorporation ([1]; test concentration 10^−9 mol/l): −53%
- MIC Asp. (Asp. niger ATCC 16404): 16 µg/mL
- MIC Cand. [3]: 64 µg/mL
- MIC Pen. (Pen. notatum CBS 19746): 8 µg/mL
- MIC Rhod. (Rhod. rubra 49): 32 µg/mL
- MIC Sacc. [4]: 128 µg/mL
- MIC Trich. [5]: 2 µg/mL

SMILES: C=CCN(C)Cc1ccc([C@H]2CC[C@H](N(C)C(=O)Oc3ccc(Cl)cc3)CC2)cc1 [M, trans-O-(4-chlorophenyl)-N-methyl-N-4-[4-(N-methyl-N-allylaminomethyl)phenyl]cyclohexylcarbamate]
- percentage inhibition of 14C-acetate incorporation ([1]; test concentration 10^−8 mol/l): −93%
- percentage inhibition of 14C-acetate incorporation ([1]; test concentration 10^−9 mol/l): −74%

SMILES: Cc1ccc(OC(=O)N(C)[C@H]2CC[C@H](c3ccc(CN(C)C)cc3)CC2)cc1.Cl [O, trans-N-4-[4-(dimethylaminomethyl)phenyl]cyclohexyl-N-methyl-O-(4-methylphenyl)carbamate-hydrochloride]
- IC50 [1]: 0.8 nM
- percentage inhibition of 14C-acetate incorporation ([1]; test concentration 10^−8 mol/l): −83%
- percentage inhibition of 14C-acetate incorporation ([1]; test concentration 10^−9 mol/l): −57%
- 2,3-epoxysqualene concentration in the liver (rat) [2, 11]: 53.4 µg/g
- 2,3-epoxysqualene concentration in the liver (rat) [2, 12]: 94.3 µg/g
- 2,3-epoxysqualene concentration in the liver (rat) [2, 15]: 72.6 µg/g
- 2,3-epoxysqualene concentration in the liver (rat) [2, 16]: 113.2 µg/g
- 2,3-epoxysqualene concentration in the liver (rat) [2, 13]: 117.9 µg/g
- 2,3-epoxysqualene concentration in the liver (rat) [2, 14]: 224.8 µg/g
- HDL-cholesterol [6]: −12.7%
- Total cholesterol [6]: −17.3%
- β-Lipoprotein-cholesterol [6]: −22.5%

SMILES: Cc1ccc(OC(=S)N(C)[C@H]2CC[C@H](c3ccc(CN(C)C)cc3)CC2)cc1.Cl [P, trans-N-4-[4-(dimethylaminomethyl)phenyl]cyclohexyl-N-methyl-O-(4-methylphenyl)thiocarbamate-hydrochloride]
- percentage inhibition of 14C-acetate incorporation ([1]; test concentration 10^−8 mol/l): −83%
- percentage inhibition of 14C-acetate incorporation ([1]; test concentration 10^−9 mol/l): −60%

SMILES: CN(C)Cc1ccc([C@H]2CC[C@H](N(C)C(=O)c3ccc(Cl)cc3)CC2)cc1 [V, reference compound]
- IC50 [1]: 3.8 nM
- percentage inhibition of 14C-acetate incorporation ([1]; test concentration 10^−8 mol/l): −59%
- percentage inhibition of 14C-acetate incorporation ([1]; test concentration 10^−9 mol/l): −23%

SMILES: Cc1ccc(CC(=O)O[C@H]2CC[C@H](c3ccc(CN(C)C)cc3)CC2)cc1 [W, trans-O-(p-tolylacetyl)-4-(4-dimethylaminomethylphenyl)-cyclohexanol, reference compound]
- IC50 [1]: 9.6 nM
- inhibition at 0.01 µM ([1]; test concentration 10^−8 mol/l, read-out: percentage inhibition of 14C-acetate incorporation): 72%
- inhibition at 0.001 µM ([1]; test concentration 10^−9 mol/l, read-out: percentage inhibition of 14C-acetate incorporation): 21%
